Measurements as given in patent US20200354327A1, “COMPOUND HAVING STAT3 INHIBITORY ACTIVITY AND USE THEREOF” (CYTUS H&B CO., LTD., priority 2017, published 2020).

Legend:
STAT92E = assay: Drosophila cell luciferase assay (10XSTAT92E-luciferase reporter); assay type: cell-based; conditions: activated by the ligand upd or Hop
Method: Drosophila cells (S2-NP, 24×3) used in the experiment were cultured as previously described (Kim B H, et al. Mol Cancer Ther. 7, 2672-2680 (2008)). S2-NP (Drosophila Schneider cell) cells were Drosophila-derived macrophage-like cells and were cultured in Schneider's medium. 24×3 cells were cell lines stably expressed by inserting 10XSTAT92E-luciferase and PolIII-Renilla luciferase-labeled plasmid DNA as reporter constructs into S2-NP cells and were cultured in a medium prepared by adding […] of geneticin to the same medium as that for S2-NP. S2-NP cells in which unpaired (upd) or HOPT^Tum-l as a ligand was expressed and 24×3 cells constructed with reporter constructs were mixed at a constant ratio and cultured for 24 hours in the presence of a compound, the expression level of STAT92E was measured using a luminometer, and the inhibition effect was compared with that of the DMSO-treated group.

SOCS3 = assay: Western blot of SOCS3 expression in L540 cells; assay type: cell-based, human
Method: (§1) The human cancer cell lines used in the experiment were U87-MG (human malignant glioblastoma) and MDA-MB-231 (human malignant breast cancer) cell lines, and various kinds of human-derived blood and solid cancer cells including these human cancer cell lines were cultured as previously described (Jung J E, et al. FASEB J. 19, 1296-1298 (2005)). The human Hodgkin lymphoma cancer cell lines L540 and HLDM-2 used in the experiment were obtained from the German Collection of Microorganism and Cell Cultures (DSMZ, Germany) and cultured using RPMI 1640 medium containing 20% FBS in a 5% CO2 incubator at a temperature of 37° C.
(§2) Western blot analysis was performed (Jung J E, et al. FASEB J. 19, 1296-1298 (2005)). The cells were washed two times with PBS and suspended in the lysate (50 mM Tris-HCl, pH 7.4, 350 mM NaCl, 1% Triton X-100, 0.5% Nonidet P-40, 10% glycerol, 0.1% SDS, 1 mM EDTA, 1 mM EGTA, 1 mM Na3VO4, 1 mM PMSF, protease and phosphorylation inhibitor) and the cell membrane and nuclear membrane were crushed to lyse the cells. The insoluble protein fraction was removed by centrifugation, and the supernatant was mixed with SDS electrophoresis buffer and electrophoresis (SDS-PAGE) was performed to detect the protein with the desired antibody and to confirm the protein expression level.

JAK3 = target: T1, JAK3 (Homo sapiens, UniProt P52333); assay: Western blot of upper signaling in L540 cells: JAK3; assay type: cell-based
T1 construct: endogenous in cells; host or cells: L540
T1 sequence (P52333 1-1124): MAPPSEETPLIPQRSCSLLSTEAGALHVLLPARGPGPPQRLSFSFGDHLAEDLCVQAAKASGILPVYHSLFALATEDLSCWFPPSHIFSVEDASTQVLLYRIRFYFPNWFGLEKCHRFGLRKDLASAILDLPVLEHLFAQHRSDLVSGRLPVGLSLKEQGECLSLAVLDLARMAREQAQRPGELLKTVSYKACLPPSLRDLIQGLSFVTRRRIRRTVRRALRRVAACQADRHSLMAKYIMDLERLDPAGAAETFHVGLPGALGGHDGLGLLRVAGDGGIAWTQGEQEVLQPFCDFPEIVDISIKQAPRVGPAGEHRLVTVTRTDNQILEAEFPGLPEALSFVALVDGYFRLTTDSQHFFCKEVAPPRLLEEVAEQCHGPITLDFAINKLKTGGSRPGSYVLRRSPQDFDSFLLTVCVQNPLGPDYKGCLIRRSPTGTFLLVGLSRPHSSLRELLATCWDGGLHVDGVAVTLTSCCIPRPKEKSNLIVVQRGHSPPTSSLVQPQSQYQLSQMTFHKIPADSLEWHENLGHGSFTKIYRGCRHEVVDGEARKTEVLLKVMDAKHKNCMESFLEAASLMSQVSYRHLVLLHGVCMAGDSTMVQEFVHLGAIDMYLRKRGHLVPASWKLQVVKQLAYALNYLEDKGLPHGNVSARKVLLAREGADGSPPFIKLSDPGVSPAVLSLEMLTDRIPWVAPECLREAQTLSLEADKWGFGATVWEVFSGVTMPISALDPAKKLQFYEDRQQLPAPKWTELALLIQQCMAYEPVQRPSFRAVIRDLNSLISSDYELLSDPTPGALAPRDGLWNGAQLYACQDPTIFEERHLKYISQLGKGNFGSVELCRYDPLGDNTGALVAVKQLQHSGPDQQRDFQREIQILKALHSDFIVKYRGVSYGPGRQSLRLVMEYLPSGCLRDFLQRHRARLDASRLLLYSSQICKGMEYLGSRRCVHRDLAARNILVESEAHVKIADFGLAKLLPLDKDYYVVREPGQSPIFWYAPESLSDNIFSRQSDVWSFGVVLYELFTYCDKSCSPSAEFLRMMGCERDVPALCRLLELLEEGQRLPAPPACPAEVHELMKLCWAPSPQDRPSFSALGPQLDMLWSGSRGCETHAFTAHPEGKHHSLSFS
Method: as §1, §2

Src family kinase Lyn = target: T2, Src family kinase Lyn (Homo sapiens, UniProt P07948); assay: Western blot of signaling in L540 cells: Lyn; assay type: cell-based
T2 construct: endogenous in cells; host or cells: L540
Method: as §1, §2

ERK signaling process = assay: Western blot of signaling in L540 cells: ERK; assay type: cell-based, human
Method: as §1, §2

STAT3 [1] = target: T3, STAT3 (Homo sapiens, UniProt P40763); assay: Western blot in Hodgkin lymphoma cell line L540; assay type: cell-based; parameters: endogenous in cells; host or cells: L540, HDLM-2, U87-MG, MDA-MB-231, further human glioblastoma and breast cancer lines; conditions: L540 cells
Method: as §1, §2

STAT3 [2] = target: T3, STAT3; assay: Western blot in HDLM-2 cells; assay type: cell-based; parameters: endogenous in cells; host or cells: L540, HDLM-2, U87-MG, MDA-MB-231, further human glioblastoma and breast cancer lines
Method: as §1, §2

STAT3 [3] = target: T3, STAT3; assay: Western blot of the 46 Table 1 compounds in Hodgkin lymphoma cell lines L540 and HDLM-2; assay type: cell-based; parameters: endogenous in cells; host or cells: L540, HDLM-2, U87-MG, MDA-MB-231, further human glioblastoma and breast cancer lines
Method: as §1, §2

T3 sequence (P40763 whole entry): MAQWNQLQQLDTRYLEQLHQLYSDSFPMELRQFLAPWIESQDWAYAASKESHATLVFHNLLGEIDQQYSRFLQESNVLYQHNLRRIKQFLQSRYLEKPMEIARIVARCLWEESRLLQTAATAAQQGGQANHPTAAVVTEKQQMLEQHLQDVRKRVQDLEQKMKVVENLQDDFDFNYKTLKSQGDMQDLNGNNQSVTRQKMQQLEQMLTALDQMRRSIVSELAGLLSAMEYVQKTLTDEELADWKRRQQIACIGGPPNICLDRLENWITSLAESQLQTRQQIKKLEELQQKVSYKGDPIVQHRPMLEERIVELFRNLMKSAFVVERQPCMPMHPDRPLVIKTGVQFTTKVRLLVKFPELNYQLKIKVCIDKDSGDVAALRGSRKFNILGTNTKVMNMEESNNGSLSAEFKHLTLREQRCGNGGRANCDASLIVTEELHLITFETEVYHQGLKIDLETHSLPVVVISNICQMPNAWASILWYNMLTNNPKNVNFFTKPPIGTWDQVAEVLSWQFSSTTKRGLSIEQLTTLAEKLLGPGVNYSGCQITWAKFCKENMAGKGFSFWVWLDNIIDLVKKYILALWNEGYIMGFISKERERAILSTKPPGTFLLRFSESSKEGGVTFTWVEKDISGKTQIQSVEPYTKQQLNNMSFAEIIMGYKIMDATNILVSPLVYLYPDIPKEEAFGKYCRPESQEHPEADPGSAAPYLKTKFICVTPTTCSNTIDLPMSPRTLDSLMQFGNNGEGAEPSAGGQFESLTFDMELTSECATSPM
T2 sequence (P07948 whole entry): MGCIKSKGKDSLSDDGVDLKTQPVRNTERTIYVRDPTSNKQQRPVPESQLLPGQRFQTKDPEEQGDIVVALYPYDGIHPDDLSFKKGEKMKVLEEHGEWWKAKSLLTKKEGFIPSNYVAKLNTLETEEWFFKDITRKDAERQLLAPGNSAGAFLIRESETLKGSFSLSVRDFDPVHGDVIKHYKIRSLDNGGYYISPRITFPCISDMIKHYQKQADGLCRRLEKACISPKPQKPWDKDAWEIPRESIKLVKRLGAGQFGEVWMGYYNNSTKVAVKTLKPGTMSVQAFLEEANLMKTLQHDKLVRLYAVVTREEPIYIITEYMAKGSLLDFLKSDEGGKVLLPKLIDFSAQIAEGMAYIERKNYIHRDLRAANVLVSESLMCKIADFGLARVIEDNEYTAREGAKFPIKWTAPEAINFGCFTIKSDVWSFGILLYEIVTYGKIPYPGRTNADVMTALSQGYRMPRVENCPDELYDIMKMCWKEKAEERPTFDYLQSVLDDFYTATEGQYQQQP

SMILES	expression of STAT92E (luciferase assay) (STAT92E)	expression of SOCS3 (SOCS3)	inhibitory action on JAK3 (JAK3)	inhibitory action on Src family kinase Lyn (Src family kinase Lyn)	inhibitory action on ERK signaling process (ERK signaling process)	phosphorylation of tyrosine residue 705 of STAT3 (STAT3 [1])	selective inhibitory action on STAT3 versus STAT1 or STAT5 (STAT3 [1])	phosphorylation of tyrosine residue 705 of STAT3 (STAT3 [2])	STAT3 inhibitory efficacy, first screening (STAT3 [3]; L540 and HDLM-2)	STAT3 inhibitory efficacy, secondary screening (STAT3 [3]; L540 and HDLM-2, 50 μM)	phosphorylation of STAT tyrosine 705 (STAT3 [3]; L540 and HDLM-2, various concentrations)
CC(C)(C)c1nc(COc2cccc([N+](=O)[O-])c2)no1 [ODZ17690, 5-tert-butyl-3-(3-nitro-phenoxymethyl)-[1,2,4]oxadiazole]	effectively inhibited the expression of STAT92E	effectively inhibited	weak inhibitory action	did not exert an inhibitory action	did not exert an inhibitory action	effectively inhibited the phosphorylation of tyrosine residue 705 of STAT3	stronger selective inhibitory action on STAT3 than on STAT1 or STAT5	selectively inhibited phosphorylation of tyrosine residue 705 of STAT3	–	–	–
Cc1ccc(S(=O)(=O)Nc2cccc(C(=O)Nc3cccnc3)c2)cc1 [compound 46, 3-{[(4-methylphenyl)sulfonyl]amino}-N-3-pyridinylbenzamide]	–	–	–	–	–	–	–	–	judged to exert superior STAT3 inhibitory efficacy	judged to exert superior STAT3 inhibitory efficacy	significantly inhibited the phosphorylation of STATdml tyrosine 705 in a concentration-dependent manner
